From the supplement of paper PMC11451515

System: NOMO1
Assay: cell viability relative to DMSO control; higher = less cytotoxic
Conditions: 48 h
Outline: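 Before seeding, each leukemia line was adapted for at least four passages in each medium. NOMO1 or SEM cells (500 cells/well) and P12-Ichikawa cells (1000 cells/well) went into 1536-well plates at 5 μl, then received library compounds in DMSO by pin dosing across 11 threefold concentrations, 47 μM to 0.79 nM. Readout was CellTiter-Glo One luminescence after 48 h at 37°C, and viability is given as a per-plate percentage of DMSO wells, with cell-free wells as background.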

[1] = HPLM + 10% dialyzed FBS, 0.000781 µM
[2] = HPLM + 10% dialyzed FBS, 0.00234 µM
[3] = HPLM + 10% dialyzed FBS, 0.00702 µM
[4] = HPLM + 10% dialyzed FBS, 0.0211 µM
[5] = HPLM + 10% dialyzed FBS, 0.0632 µM
[6] = HPLM + 10% dialyzed FBS, 0.19 µM
[7] = HPLM + 10% dialyzed FBS, 0.569 µM
[8] = HPLM + 10% dialyzed FBS, 1.71 µM
[9] = HPLM + 10% dialyzed FBS, 5.12 µM
[10] = HPLM + 10% dialyzed FBS, 15.4 µM
[11] = HPLM + 10% dialyzed FBS, 46.1 µM
[12] = RPMI 5 mM glucose + 10% FBS, 0.000781 µM
[13] = RPMI 5 mM glucose + 10% FBS, 0.00234 µM
[14] = RPMI 5 mM glucose + 10% FBS, 0.00702 µM
[15] = RPMI 5 mM glucose + 10% FBS, 0.0211 µM
[16] = RPMI 5 mM glucose + 10% FBS, 0.0632 µM
[17] = RPMI 5 mM glucose + 10% FBS, 0.19 µM
[18] = RPMI 5 mM glucose + 10% FBS, 0.569 µM
[19] = RPMI 5 mM glucose + 10% FBS, 1.71 µM
[20] = RPMI 5 mM glucose + 10% FBS, 5.12 µM
[21] = RPMI 5 mM glucose + 10% FBS, 15.4 µM
[22] = RPMI 5 mM glucose + 10% FBS, 46.1 µM
[23] = RPMI 5 mM glucose + 10% dialyzed FBS, 0.000781 µM
[24] = RPMI 5 mM glucose + 10% dialyzed FBS, 0.00234 µM
[25] = RPMI 5 mM glucose + 10% dialyzed FBS, 0.00702 µM
[26] = RPMI 5 mM glucose + 10% dialyzed FBS, 0.0211 µM
[27] = RPMI 5 mM glucose + 10% dialyzed FBS, 0.0632 µM
[28] = RPMI 5 mM glucose + 10% dialyzed FBS, 0.19 µM
[29] = RPMI 5 mM glucose + 10% dialyzed FBS, 0.569 µM
[30] = RPMI 5 mM glucose + 10% dialyzed FBS, 1.71 µM
[31] = RPMI 5 mM glucose + 10% dialyzed FBS, 5.12 µM
[32] = RPMI 5 mM glucose + 10% dialyzed FBS, 15.4 µM
[33] = RPMI 5 mM glucose + 10% dialyzed FBS, 46.1 µM

| SMILES | cell viability [1] | cell viability [2] | cell viability [3] | cell viability [4] | cell viability [5] | cell viability [6] | cell viability [7] | cell viability [8] | cell viability [9] | cell viability [10] | cell viability [11] | cell viability [12] | cell viability [13] | cell viability [14] | cell viability [15] | cell viability [16] | cell viability [17] | cell viability [18] | cell viability [19] | cell viability [20] | cell viability [21] | cell viability [22] | cell viability [23] | cell viability [24] | cell viability [25] | cell viability [26] | cell viability [27] | cell viability [28] | cell viability [29] | cell viability [30] | cell viability [31] | cell viability [32] | cell viability [33] |
| --- | --- | --- | --- | --- | --- | --- | --- | --- | --- | --- | --- | --- | --- | --- | --- | --- | --- | --- | --- | --- | --- | --- | --- | --- | --- | --- | --- | --- | --- | --- | --- | --- | --- |
| Cc1onc(-c2ccccc2)c1C(=O)N[C@@H]1C(=O)N2[C@@H]1SC(C)(C)[C@@H]2C(=O)[O-].[Na+] | 120% | 131% | 105% | 113% | 134% | 98.5% | 95.5% | 64.5% | 77.8% | 51.1% | 54.7% | 112% | 111% | 117% | 104% | 112% | 103% | 101% | 79.5% | 77.7% | 84.7% | 56.8% | 111% | 109% | 115% | 114% | 101% | 97.4% | 98.6% | 88.9% | 72.2% | 67.1% | 53.8% |
| CCCC1OC2C[C@H]3[C@@H]4CCC5=CC(=O)C=C[C@]5(C)[C@H]4C(O)C[C@]3(C)[C@]2(C(=O)CO)O1 (stereo partly drawn) |  |  |  |  |  |  |  |  |  |  |  | 106% | 105% | 107% | 111% | 107% | 104% | 106% | 103% | 100% | 97.5% | 46.7% | 99.5% | 119% | 106% | 114% | 110% | 102% | 105% | 115% | 97.1% | 95.3% | 63.7% |
| Cc1nc(Nc2n[nH]c3c2CN(C(=O)N[C@H](CN(C)C)c2ccccc2)C3(C)C)c2sccc2n1 | 89.4% | 82.7% | 70.7% | 74.1% | 65.7% | 53.8% | 54.3% | 40.2% | 41.2% | 23.1% | 2.58% | 82.6% | 85% | 91.1% | 82.6% | 71.8% | 54.2% | 53.2% | 40.5% | 38.7% | 25.6% | 2.97% | 80.3% | 86.9% | 78.3% | 72.6% | 55.8% | 58% | 60.1% | 38.9% | 40.9% | 31% | 2.28% |
